Source: article PMC9027581, “Characterization of Constituents with Potential Anti-Inflammatory Activity in Chinese Lonicera Species by UHPLC-HRMS Based Metabolite Profiling” (Metabolites, 2022)

Assays:
IL-8 expression = IL-8 expression in LPS-stimulated HUVECtert cells; type: cell-based; conditions: for IL-8 % Inhibition (30 µM) / inhibition at 30 µM / IC50: HUVECtert cells stimulated with LPS; for IL-8 % Inhibition (30 µM) / inhibition at 30 µM: means ± SD of 5 replicates, b: one sample pooled from the 5 replicates; for effect on IL-8 expression: pure compound, screening 30 µM
Protocol: (§1) To evaluate the pharmacological activity of the extracts, all extracts were assayed in three different cellular in vitro models that are relevant in the context of inflammation. […] In these cells, the potential impact of the extracts on cell viability was assessed (Figure 2C).
(§2) Assays were performed as previously described. Extracts were dissolved in dimethyl sulfoxide (DMSO) and further diluted in cell culture medium to obtain a final concentration of 50 µg/mL; DMSO at the respective final concentration (<0.1%) was used as vehicle control in each assay. OPLS-DA candidate compounds were also dissolved in DMSO to obtain a final screening concentration of 30 µM.
[…] Impact of test samples on cell viability was determined after 6 h of stimulation by XTT. […] After incubation for 2 h, absorbance was measured at 450 nm. Samples decreasing cell viability by more than 30% were considered to negatively influence cell viability.
(§3) To determine the IC50 values, pure compounds showing significant inhibitory activity at the screening concentration were tested at 5–10 concentrations, each with 4 replicates.

NF-κB = assay: NF-κB-driven luciferase reporter gene transactivation in TNF-α-stimulated HEK293/NF-κB-luc cells; type: cell-based; conditions: for NFκB % Inhibition (30 µM) / inhibition at 30 µM / IC50: HEK/NFκB-luc cells stimulated with TNF-α; for NFκB % Inhibition (30 µM) / inhibition at 30 µM: means ± SD of 4 replicates; for inhibition at 30 µM / IC50: Homo sapiens, HEK293; for effect on NF-κB activation: pure compound, screening 30 µM
Protocol: as §1, §2
Transactivation activity of a NF-κB-driven luciferase reporter gene was determined in TNF-α (2 ng/mL)-stimulated HEK293/NF-κB-luc cells (Panomics, RC0014), using 5 µM parthenolide (Sigma-Aldrich, St. Louis, MO, USA) as positive control. Differences in cell viability were detected by comparing the fluorescence of vehicle-treated cells and cells treated with sample solutions upon staining with CellTracker Green CMFDA (C2925; Invitrogen), a fluorescent probe that is retained inside living cells. Screening samples were tested in three independent experiments, each performed in quadruplicate.
as §3

NO production = assay: NO release from LPS/IFN-γ-stimulated RAW 264.7 macrophages (Griess); type: cell-based, mouse; conditions: for NO % Inhibition (30 µM) / inhibition at 30 µM: means ± SD of 3 experiments in duplicates; for effect on NO production: pure compound, screening 30 µM
Protocol: as §1, §2
After removing 50 µL of the supernatants to react with Griess reagent (Sigma Aldrich), cells were incubated with XTT reagent (XTT proliferation kit II, Sigma Aldrich). NO production (Griess reaction) and metabolic activity of the cells (XTT formazan product) were photometrically measured. Tests were performed in three independent experiments, each in duplicate.
as §3

HUVECtert cells = assay: Cell viability of HUVECtert cells (XTT); type: cell-based; set-up: key: ^+ compound significantly impaired cell viability at concentration of 30 µM; conditions: 30 µM, decrease of viability by more than 30%
Protocol: Effects on IL-8 expression were tested in hTERT-immortalized HUVECtert cells stimulated with lipopolysaccharide (LPS, 100 ng/mL, Sigma-Aldrich), with BAY 11-7082 (5 µM) as positive control. Activity screening was performed in sextuplicate. Impact of test samples on cell viability was determined after 6 h of stimulation by XTT. Incubation medium was removed, and 40 µL serum-free medium, containing XTT (Thermo Fisher Scientific, final concentration 200 µg/mL) and phenazine methyl sulfate (TCI Europe N.V., final concentration: 25 µM) were added to each well. After incubation for 2 h, absorbance was measured at 450 nm. Samples decreasing cell viability by more than 30% were considered to negatively influence cell viability.

[1] = LPS/IFNγ-stimulated RAW macrophages
[2] = Mus musculus, Macrophage, LPS/IFNγ-stimulated RAW macrophages

Row | Structure (SMILES) | IC50 (NF-κB) | inhibition at 30 µM (IL-8 expression; 30 µM) | inhibition at 30 µM (NF-κB; 30 µM) | inhibition at 30 µM (NO production; [2]) | effect on NF-κB activation (NF-κB) | other results
1 | C=C[C@H]1[C@H](O[C@@H]2O[C@H](CO)[C@@H](O)[C@H](O)[C@H]2O)OC=C(C(=O)OC)[C@H]1CC(=O)O [Compound 4, Secoxyloganin, reference compound] |  |  |  |  |  | IL-8 % Inhibition (30 µM) (IL-8 expression; 30 µM): −0.96 ± 6.01%; NFκB % Inhibition (30 µM) (NF-κB; 30 µM): −17.25 ± 9.25%; NO % Inhibition (30 µM) (NO production; [1]): 5.85 ± 4.58%
2 | COc1cc(-c2cc(=O)c3c(O)cc(O)c(-c4c(O)cc(O)c5c(=O)cc(-c6ccc(O)c(OC)c6)oc45)c3o2)ccc1O [Compound 29, 5,7,5′,7,-Tetrahydroxy-2,2′-bis-(4-hydroxy-3-methoxy-phenyl)-[8,8′]bichromenyl-4,4′-dione] |  | 2.97 ± 9.92% | 31.2 ± 15.5% | -0.85 ± 3.84% |  | NF-κB Activity (NF-κB; class from Table 5 data, 30 µM): (a)
3 | O=c1cc(-c2ccc(O)cc2)oc2c(-c3c(O)cc(O)c4c(=O)cc(-c5ccc(O)cc5)oc34)c(O)cc(O)c12 [Compound 26, 5,7,5′,7,-Tetrahydroxy-2,2′-bis-(4-hydroxy-phenyl)-[8,8′]bichromenyl-4,4′-dione] |  | -2.05 ± 3.02% | 3.42 ± 3.15% | 9.61 ± 11.4% |  | 
4 | O=c1cc(-c2ccc(O)c(-c3c(O)cc(O)c4c(=O)cc(-c5ccc(O)cc5)oc34)c2)oc2cc(O)cc(O)c12 [Compound 32, amentoflavone, reference compound] | 6.45 µM | 9.35 ± 2.78% | 90.8 ± 3.43% | 7.06 ± 10.6% | potently inhibited | 
5 | O=c1cc(-c2ccc(O)c(O)c2)oc2cc(O[C@@H]3O[C@H](CO)[C@@H](O)[C@H](O)[C@H]3O)cc(O)c12 [Compound 7, luteolin-7-O-glucoside, reference compound] |  |  |  |  | no activity | IL-8 % Inhibition (30 µM) (IL-8 expression; 30 µM): 7.42 ± 2.04%; effect on IL-8 expression (IL-8 expression): no activity; NFκB % Inhibition (30 µM) (NF-κB; 30 µM): 0.68 ± 4.29%; NO % Inhibition (30 µM) (NO production; [1]): 4.68 ± 9.82%; effect on NO production (NO production): no activity
6 | COc1cc(-c2cc(=O)c3c(OC)cc(O)cc3o2)cc(OC)c1OC [Compound 22, 7-hydroxy-5-methoxy-2-(3,4,5-trimethoxyphenyl)-chromen-4-one] |  | 13.2 ± 2.49% | 51.1 ± 2.86% | 8.22 ± 11.9% |  | effect on NF-κB activation (NF-κB; listed as 7-hydroxy-5,3′,4′,5′-tetramethoxyflavone): weak inhibition
7 | O=c1cc(-c2ccc(O)c(O)c2)oc2cc(O)cc(O)c12 [Compound 18, luteolin, reference compound] | 6.84 µM | 74.8 ± 2.15% | 95.83 ± 0.01% | 56.4 ± 12.7% |  | IC50 (NO production; [2]): 31.8 µM
8 | O=c1cc(-c2ccc(O)cc2)oc2cc(O)cc(O)c12 [Compound 21, apigenin] |  | 64.8 ± 3.03% |  | 24.3 ± 10.8% |  | IC50 (IL-8 expression): 18.9 µM

More lines, main results first:

Row | IC50 (NF-κB) | Structure (SMILES) | inhibition at 30 µM (IL-8 expression; 30 µM) | inhibition at 30 µM (NF-κB; 30 µM) | inhibition at 30 µM (NO production; [2]) | effect on NF-κB activation (NF-κB) | other results
9 | 3.44 µM | COc1ccc(-c2cc(=O)c3c(O)cc(O)c(-c4cc(-c5cc(=O)c6c(O)cc(O)cc6o5)ccc4O)c3o2)cc1 [Compound 33, podocarpusflavone A, reference compound] | 40.2 ± 29.8% | 99.2 ± 1.25% | 3.42 ± 3.94% | potently inhibited | IC50 (IL-8 expression): 47.9 µM; effect on IL-8 expression (IL-8 expression): moderately inhibited
10 | 3.04 µM | C=Cc1c(C)c2cc3nc(c4c5[nH]c(cc6nc(cc1[nH]2)C(C)=C6CC)c(C)c5C(=O)[C@@H]4C(=O)OC)[C@@H](CCC(=O)O)[C@@H]3C [Compound 52, pheophorbide A, reference compound] | 95.8% | 74.7 ± 13.6% | 5.48 ± 7.55% | pronounced inhibition | IL-8 Activity (IL-8 expression; class from Table 5 data, 30 µM): a/ct; effect on IL-8 expression (IL-8 expression): inhibited IL-8 production; effect on NO production (NO production): did not inhibit; impaired cell viability (flag, IL-8 assay) (HUVECtert cells): +
11 | 19.6 µM | COc1cc(-c2cc(=O)c3c(O)cc(O)c(-c4c(O)cc(O)c5c(=O)cc(-c6ccc(O)cc6)oc45)c3o2)ccc1O [Compound 27, 5,7,5′,7,-Tetrahydroxy-2-(4-hydroxy3-methoxy-phenyl)-2′-(4-hydroxy-phenyl)-[8,8′]bichromenyl-4,4′-dione] | 3.5 ± 4.58% | 78.1 ± 8.86% | 1.45 ± 7.78% | moderately inhibited | 
